Reference: patent US20250186396A1, “COMPOSITIONS AND METHODS FOR THE TREATMENT OF GLIOBLASTOMA WITH A DUAL TARGETING ANTI-TUMOR COMPOSITION” (Northwestern University, priority 2023, published 2025)

Columns and labels:
[1] = system: THP-1 macrophages; assay: Transwell migration assay of THP-1 macrophages with U87 conditioned media; type: cell-based; details: conditioned media from U87 cells pretreated with SR9009 5 μM
Description: (§1) Migration assay. To study the relationship between macrophages and microglia, HMC3 microglia or THP-1 macrophages were seeded into the 24-well plates (receiver wells) using serum-containing culture medium for 24 hours to reach 40-60% confluence and then stimulated with or without U87 cell CM for additional 24 hours. After that, cells were washed with PBS twice and cultured in serum-free culture medium. For upper chambers, THP-1 macrophages (2×10^5) and HMC3 microglia (5×10^4) were suspended in serum-free culture medium and seeded into […] (Corning, #3421) and […] (Corning, #3422) 24-well Transwell inserts, respectively. To study the role of GBM cells on microglia migration, HMC3 microglia (5×10^4) were suspended in serum-free culture medium and seeded into 8.0 μm inserts. SIM-A9 microglia (1×10^5) and THP-1 macrophages (1×10^5) were suspended in serum-free culture medium and seeded into 5.0 μm inserts. The CM from LOX-depleted or inhibited U87 cells, LOX-overexpressed GL261 cells, or SR9009-treated U87 cells were added to the receiver wells, respectively. After 10 hours, migrated cells were fixed with 4% PFA (ThermoFisher, #J61899.AK) for 30 minutes and stained with crystal violet (Sigma-Aldrich, #C-3886) for another 30 minutes. The membrane inserts were washed with water and imaged under an EVOS microscope. The number of transferred cells was counted using ImageJ.

[2] = system: LOX; assay: Immunoblots for LOX in CT2A cells and 005 GSCs; type: cell-based, mouse; details: immunoblot, SR9009 5 μM
Description: (§2) Cell Culture. The GBM cell lines U87, U251, SF763, LN229, and CT2A, as well as 293T cells were cultured in Dulbecco's Modified Eagle's Medium (DMEM; Gibco, #11995-065). The mouse glioma cell line GL261 cells and SIM-A9 microglia were cultured in Dulbecco's Modified Eagle Medium-Ham's F12 medium (Gibco, #10565-018). HMC3 microglia were cultured in Eagle's Minimum Essential Medium (ATCC, #30-2003). THP-1 macrophages were cultured in RPMI 1640 medium (Gibco, #11875093). All cell lines were cultured in the indicated medium containing 10% fetal bovine serum (FBS; Fisher Scientific, #16140071) and 1:100 antibiotic-antimycotic (Gibco, #15140-122), and were purchased from the American Type Culture Collection (ATCC). Human GSCs (GSC23 and GSC7-10) and mouse GBM tumor-derived 005 GSCs and QPP7 GSCs were cultured in neural stem cell (NSC) proliferation media (Millipore, #SCM005) containing 20 ng/mL epidermal growth factor (EGF; PeproTech, #AF-100-15) and basic fibroblast growth factor (bFGF; PeproTech, #100-18B). Human GSCs were gifted by Dr. Frederick F. Lang from the Brain Tumor Center (The University of Texas MD Anderson Cancer Center). 005 GSCs and QPP7 GSCs were provided by Dr. Samuel D. Rabkin (Massachusetts General Hospital) and Dr. Jian Hu (The University of Texas MD Anderson Cancer Center), respectively. PTEN CRISPR KO in SF763 and LN229 cells were generated. […]

[3] = system: HMC3 microglia; assay: Transwell migration assay of HMC3 microglia with U87 conditioned media; type: cell-based; details: conditioned media from U87 cells pretreated with BAPN 200 μM; 10 hours
Description: as §1

[4] = system: PATZ1 and PRRX1; assay: RT-qPCR of transcription factors in PTEN-null GBM cells; type: cell-based, human; details: U87 and U251 cells; BAPN 200 μM
Description: as §2, with “Center).” for “Center). 005 GSCs and QPP7 GSCs were provided by Dr. Samuel D. Rabkin (Massachusetts General Hospital) and Dr. Jian Hu (The University of Texas MD Anderson Cancer Center), respectively. PTEN CRISPR KO in SF763 and LN229 cells were generated.”
Quantitative real-time PCR (RT-qPCR). […] RNA was quantified by NanoDrop spectrophotometers and then the All-In-One 5× RT MasterMix (Applied Biological Materials, #G592) was used to reverse-transcribe RNA into cDNA in T100 Thermal Cycler (Bio-Rad). […]

## CCOC(=O)N1CCC(CN(Cc2ccc(Cl)cc2)Cc2ccc([N+](=O)[O-])s2)C1 (centres unmarked) [SR9009]
[1]
  migration ability of THP-1 macrophages: did not change
[2]
  LOX expression: did not affect

## N#CCCN [BAPN, β-aminopropionitrile]
[3]
  migration of HMC3 microglia: increased the migration ability
[4]
  mRNA expression of PATZ1: upregulated
  mRNA expression of PRRX1: upregulated
